Assay results as given in PubChem BioAssay (NCI).
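Protocol summary: plate cells (96-well), add compound at 5 concentrations, incubate 48 h, interpolate endpoints linearly. Here, GI50 denotes the concentration required for 50% inhibition of growth. Definition used: TGI = concentration required for complete inhibition of growth.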

Tests used:
Experiment in all cases: DTP human tumour cell line panel, 48 h
[1] = test system: ACHN renal
[2] = test system: HCT-116 colon
[3] = test system: HL-60(TB) leukemia
[4] = test system: LOX IMVI melanoma
[5] = test system: NCI-H226 lung
[6] = test system: RPMI-8226 leukemia
[7] = test system: RXF 393 renal
[8] = test system: SF-539 CNS
[9] = test system: SK-MEL-2 melanoma
[10] = test system: SK-MEL-5 melanoma
[11] = test system: SK-OV-3 ovarian
[12] = test system: SN12C renal
[13] = test system: SNB-75 CNS
[14] = test system: SR leukemia
[15] = test system: UO-31 renal

| Compound | TGI [1] [µM] | TGI [2] [µM] | TGI [3] [µM] | TGI [4] [µM] | TGI [5] [µM] | TGI [6] [µM] | TGI [7] [µM] | TGI [8] [µM] | TGI [9] [µM] | TGI [10] [µM] | TGI [11] [µM] | TGI [12] [µM] | TGI [13] [µM] | TGI [14] [µM] | TGI [15] [µM] | GI50 [7] [µM] |
| --- | --- | --- | --- | --- | --- | --- | --- | --- | --- | --- | --- | --- | --- | --- | --- | --- |
| O=C1CCc2ccc(O)c(c2)Oc2ccc(cc2)C(Sc2ccccc2)CCO1 (stereo unspecified) | 32.1 | 29.8 | > 100 | 25.8 | 30.2 | 36.4 | 35.4 | 31.4 | 37.3 | 24.8 | > 100 | 29.7 | 28.4 | 76 | 33.4 | – |
| O=C(NNC(=S)NC1CCCCC1)C12CC3CC(CC(C3)C1)C2 | > 100 | > 100 | > 100 | > 100 | > 100 | > 100 | > 100 | > 100 | > 100 | > 100 | > 100 | > 100 | > 100 | > 100 | > 100 | – |
| CC(C)=CCCC(C)CCOS(=O)C(F)(F)F (stereo unspecified) | 34.4 | 30.3 | 9.14 | 37.2 | 41.4 | 90.8 | 7.57 | > 100 | 36.5 | 33.1 | > 100 | 41.7 | 67.7 | 10.3 | 35.2 | – |
| C=CCOC(=O)C1=C(C)NC2=N[C@H](CCCCCCCCC)C[C@@H]3CCC1N23 (stereo partly specified) | 44.4 | 36 | 69.4 | 44.9 | 36.6 | > 100 | 36 | 38.1 | 36.5 | 34.4 | 75.2 | 35.7 | 83.5 | > 100 | 32.5 | – |
| CCOc1ccccc1N=Nc1c(-c2ccccc2)nn(C(=O)CC(=O)Nc2cccc(C)c2)c1-c1ccccc1 | > 100 | > 100 | > 100 | > 100 | > 100 | > 100 | > 100 | > 100 | > 100 | > 100 | > 100 | > 100 | > 100 | > 100 | > 100 | – |
| O=C(/C=C/c1ccccc1)Nc1ccccc1SCCCCl | > 100 | 39.1 | 43.6 | > 68.2 | > 100 | > 100 | 84.2 | 39.8 | > 100 | > 91.4 | > 100 | 98.5 | > 87.1 | 64.7 | 91.6 | – |
| CC(=O)NNc1nc(C)c(C(/C=C/c2ccccc2O)=N/N=C(N)N)s1 | > 100 | > 100 | > 100 | > 100 | > 100 | > 100 | > 100 | > 100 | > 100 | > 100 | > 100 | > 100 | > 100 | > 100 | > 100 | – |
| COc1cc(OC)cc(-c2cc(=O)c3cc4c(cc3[nH]2)OCO4)c1 | > 35.5 | 5.5 | 0.714 | > 51.1 | 1.06 | > 58.8 | 0.518 | 0.498 | 4.46 | 8.23 | 4.49 | 30 | 43.7 | 9.54 | > 88.9 | 0.219 |
| COc1ccccc1/C=C/C1=NN(c2cccc(S(=O)(=O)O)c2)C2(C1)C(Cl)C(=O)N2c1nc2ccccc2s1 (stereo unspecified) | > 100 | > 100 | 45.5 | > 67 | > 100 | 44 | > 87 | > 100 | > 100 | > 100 | > 100 | > 100 | > 96.3 | 55.2 | 33.5 | – |
| CCN(CC)CCN(C)c1ccc(CO)c2c1C(=O)c1ccccc1S2=O (stereo unspecified) | 23.8 | 3.97 | 51.8 | 3.66 | 33.6 | 11.8 | 36 | 3.61 | 40.1 | 6.52 | 32.4 | 28.9 | 31.5 | 5.53 | 42.1 | – |
| CC1=CC[C@@]2(C)CC[C@](O)(C(C)C)C2C(OC(=O)c2ccccc2)C1 (stereo partly specified) | 32.1 | 31.8 | 82.2 | 42 | 45.3 | 37.2 | 27.3 | 37.4 | 32.2 | 34.9 | 28.8 | 44.9 | 35.8 | 97 | 32.6 | – |
| COc1ccc(N=NC(=O)NC(CC(C)C)C(=O)NCC(=O)O)cc1 (stereo unspecified) | > 100 | > 100 | > 100 | > 100 | 99 | > 100 | > 100 | 29.7 | > 100 | > 56.2 | > 100 | > 100 | > 100 | > 100 | 10.7 | – |
| O=[S@]1c2ccc3ccccc3c2N[C@@H]2[C@H]1[C@H]1C=C[C@@H]2C1 | > 100 | > 100 | 63 | > 100 | > 100 | > 100 | 95.1 | > 100 | > 100 | > 100 | > 100 | > 100 | 73.4 | > 100 | > 100 | – |
| CC(C)CC(N)C(=O)Nc1ccc2ccccc2c1 (stereo unspecified) | > 100 | > 100 | > 100 | > 100 | > 100 | > 100 | > 100 | > 100 | > 100 | > 100 | > 100 | > 100 | > 100 | > 100 | > 100 | – |
| CC(C)=CCC[C@@H](C)C1=C(O)C(Nc2ccccc2Cl)=C(C)C(=O)C1=O | > 46.6 | > 50.9 | 4.16 | > 75 | 29.3 | > 55.8 | > 50.8 | 35.7 | 46.7 | 42.9 | > 75 | > 75 | > 52.3 | 72.1 | > 49.5 | – |
